# According to article PMC10850145, “Hormonal steroids induce multidrug resistance and stress response genes in Neisseria gonorrhoeae by binding to MtrR” (Nature Communications, 2024):
# Where “and” joins values, the source holds several entries; their conditions need not be identical. Equal values may be shown once. Read-outs that look alike come from different tables or passages of the source.
# System: mtrC-lacZ expression
# Format: cell-based, Neisseria gonorrhoeae
# Settings: for β-galactosidase activity, Mean / β-galactosidase activity, single replicate: mtrCDE block (c1-c37), ΔmtrR + mtrR R176E in trans; for β-galactosidase activity, individual replicate / β-galactosidase activity, Miller units (single replicate): mtrR WT in cis; for β-galactosidase activity, individual replicate: single replicate values, second (right) block
# [1] = mtrC-lacZ, ΔmtrR + mtrR D171A in trans, 6.25 µM hormone, single replicate
# [2] = mtrC-lacZ, ΔmtrR + mtrR D171A in trans, 12.5 µM hormone, single replicate
# [3] = mtrC-lacZ, ΔmtrR + mtrR D171A in trans, 25 µM hormone, single replicate
# [4] = mtrC-lacZ, ΔmtrR + mtrR D171A in trans, 50 µM hormone, single replicate
# [5] = mtrC-lacZ, ΔmtrR + mtrR WT in trans, 6.25 µM hormone, single replicate
# [6] = mtrC-lacZ, ΔmtrR + mtrR WT in trans, 12.5 µM hormone, single replicate
# [7] = mtrC-lacZ, ΔmtrR + mtrR WT in trans, 25 µM hormone, single replicate
# [8] = mtrC-lacZ, ΔmtrR + mtrR WT in trans, 50 µM hormone, single replicate
compound,measurement,setting,value
"C[C@]12CC[C@@H]3c4ccc(O)cc4CC[C@H]3[C@@H]1CC[C@@H]2O [β-Estradiol, β-estradiol]","Miller units, Mean","Mean of plate rows 1-4, plate columns 1-6 (first strain), 6.25 µM hormone",83 Miller units
same,"Miller units, Mean","Mean of plate rows 1-4, plate columns 1-6 (first strain), 12.5 µM hormone",113 Miller units
same,"Miller units, Mean","Mean of plate rows 1-4, plate columns 1-6 (first strain), 25 µM hormone",148 Miller units
same,"Miller units, Mean","Mean of plate rows 1-4, plate columns 1-6 (first strain), 50 µM hormone",162 Miller units
same,"Miller units, Mean","Mean of plate rows 1-4, plate columns 7-12 (second strain), 6.25 µM hormone",163 Miller units
same,"Miller units, Mean","Mean of plate rows 1-4, plate columns 7-12 (second strain), 12.5 µM hormone",152 Miller units
same,"Miller units, Mean","Mean of plate rows 1-4, plate columns 7-12 (second strain), 25 µM hormone",175 Miller units
same,"Miller units, Mean","Mean of plate rows 1-4, plate columns 7-12 (second strain), 50 µM hormone",160 Miller units
same,induction of mtrC expression,"complemented (MtrR+) strains, increasing hormone",could be induced
same,induction of mtrC expression,loss of MtrR or MtrR-D171A strain,abrogated
same,"Miller units, Mean","mtrC-lacZ, WT strain, 6.25 µM hormone",131 Miller units
same,β-galactosidase activity (Miller units),"mtrC-lacZ, WT strain, 6.25 µM hormone, single replicate",164 Miller units and 114 Miller units and 120 Miller units
same,"Miller units, Mean","mtrC-lacZ, WT strain, 12.5 µM hormone",148 Miller units
same,β-galactosidase activity (Miller units),"mtrC-lacZ, WT strain, 12.5 µM hormone, single replicate",178 Miller units and 161 Miller units and 132 Miller units
same,"Miller units, Mean","mtrC-lacZ, WT strain, 25 µM hormone",177 Miller units
same,β-galactosidase activity (Miller units),"mtrC-lacZ, WT strain, 25 µM hormone, single replicate",160 Miller units and 189 Miller units
same,"Miller units, Mean","mtrC-lacZ, WT strain, 50 µM hormone",224 Miller units
same,β-galactosidase activity (Miller units),"mtrC-lacZ, WT strain, 50 µM hormone, single replicate",242 Miller units and 240 Miller units and 211 Miller units
same,"Miller units, Mean","mtrC-lacZ, WT, 6.25 µM hormone",131 Miller units
same,Miller units,"mtrC-lacZ, WT, 6.25 µM hormone, single replicate (plate data)",164 Miller units and 114 Miller units and 128 Miller units and 120 Miller units
same,"Miller units, Mean","mtrC-lacZ, WT, 12.5 µM hormone",148 Miller units
same,Miller units,"mtrC-lacZ, WT, 12.5 µM hormone, single replicate (plate data)",178 Miller units and 161 Miller units and 120 Miller units and 132 Miller units
same,"Miller units, Mean","mtrC-lacZ, WT, 25 µM hormone",177 Miller units
same,Miller units,"mtrC-lacZ, WT, 25 µM hormone, single replicate (plate data)",160 Miller units and 176 Miller units and 189 Miller units
same,"Miller units, Mean","mtrC-lacZ, WT, 50 µM hormone",224 Miller units
same,Miller units,"mtrC-lacZ, WT, 50 µM hormone, single replicate (plate data)",242 Miller units and 240 Miller units and 203 Miller units and 211 Miller units
same,"Miller units, Mean","mtrC-lacZ, ΔmtrR + mtrR D171A in trans, 6.25 µM hormone",148.9 Miller units
same,Miller units,[1],158 Miller units and 155 Miller units
same,β-galactosidase activity (Miller units),[1],155 Miller units and 147 Miller units and 135 Miller units
same,"Miller units, Mean","mtrC-lacZ, ΔmtrR + mtrR D171A in trans, 12.5 µM hormone",157.2 Miller units
same,Miller units,[2],167 Miller units and 147 Miller units
same,β-galactosidase activity (Miller units),[2],147 Miller units and 195 Miller units and 119 Miller units
same,"Miller units, Mean","mtrC-lacZ, ΔmtrR + mtrR D171A in trans, 25 µM hormone",167.0 Miller units
same,Miller units,[3],203 Miller units and 162 Miller units
same,β-galactosidase activity (Miller units),[3],162 Miller units and 132 Miller units and 171 Miller units
same,"Miller units, Mean","mtrC-lacZ, ΔmtrR + mtrR D171A in trans, 50 µM hormone",162.7 Miller units
same,Miller units,[4],193 Miller units
same,β-galactosidase activity (Miller units),[4],188 Miller units and 124 Miller units and 146 Miller units
same,"Miller units, Mean","mtrC-lacZ, ΔmtrR + mtrR WT in trans, 6.25 µM hormone",116 Miller units
same,Miller units,[5],106 Miller units and 141 Miller units and 104 Miller units and 116 Miller units
same,β-galactosidase activity (Miller units),[5],106 Miller units and 141 Miller units and 104 Miller units and 116 Miller units
same,"Miller units, Mean","mtrC-lacZ, ΔmtrR + mtrR WT in trans, 12.5 µM hormone",113 Miller units
same,Miller units,[6],119 Miller units and 115 Miller units and 110 Miller units
same,β-galactosidase activity (Miller units),[6],119 Miller units and 115 Miller units and 110 Miller units
same,"Miller units, Mean","mtrC-lacZ, ΔmtrR + mtrR WT in trans, 25 µM hormone",138 Miller units
same,Miller units,[7],133 Miller units and 147 Miller units and 127 Miller units and 144 Miller units
same,β-galactosidase activity (Miller units),[7],133 Miller units and 147 Miller units and 127 Miller units and 144 Miller units
same,"Miller units, Mean","mtrC-lacZ, ΔmtrR + mtrR WT in trans, 50 µM hormone",158 Miller units
same,Miller units,[8],176 Miller units and 161 Miller units and 132 Miller units and 164 Miller units
same,β-galactosidase activity (Miller units),[8],176 Miller units and 161 Miller units and 132 Miller units and 164 Miller units
same,"Miller units, Mean","mtrC-lacZ, ΔmtrR strain, 6.25 µM hormone",210 Miller units
same,β-galactosidase activity (Miller units),"mtrC-lacZ, ΔmtrR strain, 6.25 µM hormone, single replicate",187 Miller units and 203 Miller units and 200 Miller units
same,"Miller units, Mean","mtrC-lacZ, ΔmtrR strain, 12.5 µM hormone",218 Miller units
same,β-galactosidase activity (Miller units),"mtrC-lacZ, ΔmtrR strain, 12.5 µM hormone, single replicate",197 Miller units and 237 Miller units and 209 Miller units
same,"Miller units, Mean","mtrC-lacZ, ΔmtrR strain, 25 µM hormone",243 Miller units
same,β-galactosidase activity (Miller units),"mtrC-lacZ, ΔmtrR strain, 25 µM hormone, single replicate",261 Miller units and 223 Miller units and 202 Miller units
same,"Miller units, Mean","mtrC-lacZ, ΔmtrR strain, 50 µM hormone",255 Miller units
same,β-galactosidase activity (Miller units),"mtrC-lacZ, ΔmtrR strain, 50 µM hormone, single replicate",220 Miller units and 317 Miller units
same,"Miller units, Mean","mtrC-lacZ, ΔmtrR, 6.25 µM hormone",210 Miller units
same,Miller units,"mtrC-lacZ, ΔmtrR, 6.25 µM hormone, single replicate (plate data)",203 Miller units and 200 Miller units and 187 Miller units and 250 Miller units
same,"Miller units, Mean","mtrC-lacZ, ΔmtrR, 12.5 µM hormone",218 Miller units
same,Miller units,"mtrC-lacZ, ΔmtrR, 12.5 µM hormone, single replicate (plate data)",237 Miller units and 209 Miller units and 197 Miller units and 228 Miller units
same,"Miller units, Mean","mtrC-lacZ, ΔmtrR, 25 µM hormone",243 Miller units
same,Miller units,"mtrC-lacZ, ΔmtrR, 25 µM hormone, single replicate (plate data)",223 Miller units and 202 Miller units and 261 Miller units and 287 Miller units
same,"Miller units, Mean","mtrC-lacZ, ΔmtrR, 50 µM hormone",255 Miller units
same,Miller units,"mtrC-lacZ, ΔmtrR, 50 µM hormone, single replicate (plate data)",317 Miller units and 220 Miller units and 261 Miller units
same,"β-galactosidase activity, Mean",6.25 µM,194 Miller units
same,"β-galactosidase activity, single replicate",6.25 µM,207 Miller units and 196 Miller units and 188 Miller units
same,"β-galactosidase activity, Mean",12.5 µM,205 Miller units
same,"β-galactosidase activity, single replicate",12.5 µM,258 Miller units and 180 Miller units and 177 Miller units and 206 Miller units
same,"β-galactosidase activity, Mean",25 µM,197 Miller units
same,"β-galactosidase activity, single replicate",25 µM,241 Miller units and 190 Miller units and 188 Miller units and 169 Miller units
same,"β-galactosidase activity, Mean",50 µM,269 Miller units
same,"β-galactosidase activity, single replicate",50 µM,316 Miller units and 254 Miller units and 275 Miller units and 231 Miller units
same,"β-galactosidase activity, individual replicate",6.25 µM hormone,54 Miller units and 39 Miller units
same,"β-galactosidase activity, Miller units (single replicate)","6.25 µM, first data set (c15-c36)",147 Miller units and 157 Miller units and 114 Miller units and 129 Miller units
same,"β-galactosidase activity, Miller units (single replicate)","6.25 µM, second data set (c53-c74)",43 Miller units and 41 Miller units
same,"β-galactosidase activity, individual replicate",12.5 µM hormone,72 Miller units and 56 Miller units
same,"β-galactosidase activity, Miller units (single replicate)","12.5 µM, first data set (c15-c36)",160 Miller units and 155 Miller units and 156 Miller units and 149 Miller units
same,"β-galactosidase activity, Miller units (single replicate)","12.5 µM, second data set (c53-c74)",45 Miller units and 43 Miller units
same,"β-galactosidase activity, individual replicate",25 µM hormone,63 Miller units
same,"β-galactosidase activity, Miller units (single replicate)","25 µM, first data set (c15-c36)",152 Miller units and 181 Miller units and 159 Miller units and 157 Miller units
same,"β-galactosidase activity, Miller units (single replicate)","25 µM, second data set (c53-c74)",63 Miller units and 52 Miller units
